Here are results for six compounds from patent US8481501B2 (priority 2004, dated 2013).

Data set [1] concerns the target T1, kappa opioid receptor (Homo sapiens, UniProt P41145). Also on record: expressed in transfected cells; host or cells: transfected cells. The conditions noted are these: Table 6, data from reference 6, cited from earlier work.
Data set [2] deals with T1, kappa opioid receptor. Put plainly: biochemical. The conditions noted are these: for Emax: read-out: kappa % stimulation. Also on record: expressed in transfected cells; host or cells: transfected cells. Format: biochemical.
Data set [3] has as its target T2, delta opioid receptor (Homo sapiens, UniProt P41143). The arrangement: expressed in transfected cells; host or cells: transfected cells. The conditions noted are these: Table 6, data from reference 6, cited from earlier work; for EC50: read-out: δ EC50.
Data set [4] is described as follows: Metabolic stability in human liver pooled S9. The conditions noted are these: for HLS9 t 1/2: 3.2 mg/mL HLS9, 0.1 mM compound.
Data set [5] deals with T2, delta opioid receptor. Also on record: expressed in transfected cells; host or cells: transfected cells. Conditions: read-out: Ki δ; Table 5; data taken from MacDougall et al.; cited from earlier work.
In data set [6] the target is T2, delta opioid receptor. Kind of data set: biochemical. Format: binding. The arrangement: expressed in transfected cells; host or cells: transfected cells.
The nature of data set [7]: Metabolic stability in mouse liver microsomes. The conditions noted are these: for MLM t 1/2: 1.2 mg/mL MLM, 0.1 mM compound. (Liver microsomes are vesicles of endoplasmic reticulum, rich in cytochrome P450 enzymes.)
Data set [8] concerns the target T1, kappa opioid receptor. Kind of data set: biochemical. Format: binding. Also on record: expressed in transfected cells; host or cells: transfected cells.
The target of data set [9] is T2, delta opioid receptor. Put plainly: Stimulation of [35S]GTPγS binding (coupling to G proteins). Format: biochemical. The arrangement: expressed in transfected cells; host or cells: transfected cells. Conditions: for agonist/antagonist character at the delta receptor: based on [35S]GTPγS binding.
Data set [10] has as its target T1, kappa opioid receptor. Put plainly: Ke at kappa, CHO membranes. Format: biochemical. Also on record: expressed in transfected cells; host or cells: CHO. Conditions: Table 7, CHO membranes.
In data set [11] the test system is adult male rats. Put plainly: Precipitation of somatic signs of withdrawal after acute morphine. Format: in vivo, rat. The conditions noted are these: s.c., 4 hr after morphine 5.0 mg/kg.
Data set [12] can be described thus: Metabolic stability in rat liver microsomes.
For the next data set, the system named is heroin-dependent rats. Put plainly: Heroin self-administration in heroin-dependent rats. Format: in vivo, rat. Conditions: s.c. 15 mins prior to dark phase; doses 13e 0.04, 13g 0.2, M6G 0.04, 13h 0.01, 0.04, 0.2 mg/kg.
Data set [13] is described as follows: Chemical stability at pH 2.0 and pH 7.4, HPLC.
From the text: The chemical stability of selected compounds were examined at pH 7.4 and pH 2.0. […] Then HPLC was used to analyze the decomposition of the starting material.
For data set [14] the following is noted: Penson et al.; cited from earlier work.
Data set [15] concerns the target T1, kappa opioid receptor. Also on record: expressed in transfected cells; host or cells: transfected cells. The conditions noted are these: read-out: Ki κ; Table 5; data taken from MacDougall et al.; cited from earlier work.
The target of data set [16] is T2, delta opioid receptor. Put plainly: Ke at delta, CHO membranes. Conditions: Table 7, CHO membranes. Also on record: expressed in transfected cells; host or cells: CHO. Type of data set: biochemical.
In data set [17] the test system is adult male rats. Conditions: literature standard, Schulteis et al.; cited from earlier work.
Setting [18] is: Table 7, CHO membranes, read-out: Ki delta.
The mark [19] stands for this setting: Table 7, CHO membranes, read-out: Ki kappa.
[20] abbreviates: Table 9, ND, No Detectable change.

The structures appear in SMILES notation. Where two headings read alike, the source gives them in different places.

T1 sequence (P41145 whole entry): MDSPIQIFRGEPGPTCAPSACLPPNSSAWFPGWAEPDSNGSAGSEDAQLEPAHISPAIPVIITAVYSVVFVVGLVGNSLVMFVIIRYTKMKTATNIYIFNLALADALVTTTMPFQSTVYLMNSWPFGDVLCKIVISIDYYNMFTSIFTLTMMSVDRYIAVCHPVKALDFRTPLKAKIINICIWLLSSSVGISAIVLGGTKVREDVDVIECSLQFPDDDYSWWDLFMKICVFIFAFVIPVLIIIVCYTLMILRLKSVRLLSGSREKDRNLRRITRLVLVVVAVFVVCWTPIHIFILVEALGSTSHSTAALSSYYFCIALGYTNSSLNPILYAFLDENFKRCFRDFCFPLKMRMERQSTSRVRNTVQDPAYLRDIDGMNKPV
T2 sequence (P41143 whole entry): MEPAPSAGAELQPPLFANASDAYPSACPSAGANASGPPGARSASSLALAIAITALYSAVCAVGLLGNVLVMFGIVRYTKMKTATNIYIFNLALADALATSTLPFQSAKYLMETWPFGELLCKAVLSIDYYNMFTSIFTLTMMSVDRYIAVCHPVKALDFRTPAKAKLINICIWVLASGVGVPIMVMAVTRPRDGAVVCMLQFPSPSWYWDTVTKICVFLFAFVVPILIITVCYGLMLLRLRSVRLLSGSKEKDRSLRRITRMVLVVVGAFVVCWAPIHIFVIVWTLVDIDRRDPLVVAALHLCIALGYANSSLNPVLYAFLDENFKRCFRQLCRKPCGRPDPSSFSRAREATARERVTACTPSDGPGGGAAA

In general, melting point refers to the temperature, or range, at which the solid turns liquid. On to `CN1CCC23c4c5ccc(O)c4OC2C(SC2O[C@H](CO)[C@@H](O)[C@H](O)[C@H]2O)C=CC3C1C5` (stereo partly drawn) [4b, 6β-Thiomorphine-6β-S-D-glucopyranoside], for which the melting point is > 300 °C (dec.). The “κ Emax” value at kappa opioid receptor [1] (ND: No detectable activity) is on record as 42.5 ± 2.5. Also, the EC50 at kappa opioid receptor [1] (read-out: κ EC50) was 321 ± 93 nM. The Emax on kappa opioid receptor [2] (Table 2) was found to be 42.5 ± 2.5%. Besides, the EC50 on kappa opioid receptor [2] (Table 2, read-out: kappa EC50) stood at 321 ± 93.1 nM. Further, on delta opioid receptor [3], the “δ Emax” value is reported as 51.5 ± 6.5 and the EC50 is 192 ± 15 nM. For the same compound, the “HLS9 t 1/2” value in data set [4] was “stable”. Moreover, the Ki at delta opioid receptor [5] is 56.2 ± 2.2 nM. The Ki on delta opioid receptor [6] (Table 1, read-out: Ki δ) came to 56.2 ± 2.15 nM. Moreover, the “MLM t 1/2” value in [7] is recorded as “stable”. Moreover, the Ki on kappa opioid receptor [8] (Table 1, read-out: Ki κ) was 136 ± 16.9 nM. Further, on delta opioid receptor [9] (Table 2), the Emax was found to be 51.5% and the delta % stimulation is given as 51.5 ± 6.5%. The compound further yielded an EC50 on delta opioid receptor [9] (delta EC50, Table 2) of 192 ± 14.8 nM.

Turning to `O=C(CC1OC(CO)C(O)C(O)C1O)NC1CCC2(O)C3Cc4ccc(O)c5c4C2(CCN3CC2CC2)C1O5` (stereo not drawn) [6a, 14-Hydroxy-17-(cyclopropylmethyl)nordesmorphine-6-acetamidoglucose], the Emax on kappa opioid receptor [2] (Table 8) was 11%; at delta opioid receptor [9] (Table 8), 43.1%. Further, the EC50 at kappa opioid receptor [2] (Table 8, read-out: kappa EC50) turned out to be 11.2 nM; at delta opioid receptor [9] (Table 8, read-out: delta EC50), 90.9 nM. On kappa opioid receptor [2] (based on [35S]GTPγS binding), the “agonist/antagonist character at the kappa receptor” value is recorded as “strong antagonist”. Besides, the “Ke(other) (kappa)” value on kappa opioid receptor [10] is reported as 13.39 ± 1.51. The Ki delta entry on delta opioid receptor [6] (Table 7, CHO membranes) is “moderate affinity”. The Ki was determined as 91.3 ± 3.8 nM at delta opioid receptor [6] (setting [18]) and 10.4 ± 2.8 nM on kappa opioid receptor [8] (setting [19]). In addition, the “approximate EC50 for precipitation of somatic signs of withdrawal” value in the data set with adult male rats [11] was “approximately 1 mg/kg”. At kappa opioid receptor [8] (Table 7, CHO membranes), the Ki kappa entry is “moderate affinity”. Besides, at delta opioid receptor [9], the “agonist/antagonist character at the delta receptor” value is “partial agonist”.

Broadly, the half-life is the time in which the quantity being followed falls by half. Lower therefore signals rapid decline. Turning to `COc1cccc(C(=O)NC2CCC3(O)C4Cc5ccc(O)c6c5C3(CCN4CC3CC3)C2O6)c1` (stereo not drawn) [6d, 6-(3′-Methoxy)benzamido-14-hydroxy-17-(cyclopropylmethyl)nordesmorphine], at kappa opioid receptor [2], the EC50 worked out at 1.7 nM, the “agonist/antagonist character at the kappa receptor” value is listed as “partial or full or partial agonism” and the Emax stood at 109%. The “Half life in Human liver S-9” value in [4] (setting [20]) is “not detectably metabolized”. In addition, the Ki at delta opioid receptor [6] (setting [18]) turned out to be 10.6 ± 1.2 nM. Moreover, in data set [12] (rat liver microsomes), the “fold more stable than nalmefene” value is reported as 22 fold and the “fold more stable than naltrexone” value was found to be 6 fold. In addition, in data set [12] (rat, microsomes, pH 7.4), the half-life at 0.1 mM was more than 9.08 h. Also, in [7] (setting [20]), the “Half life in Mouse liver microsomes” value was “not detectably metabolized”. Besides, in the data set on adult male rats [11], the “approximate EC50 for precipitation of somatic signs of withdrawal” value is given as “less than 0.1 mg/kg” and the “dose at which somatic signs of withdrawal peaked” value was 0.3 mg/kg. Further, the Ki on kappa opioid receptor [8] came to 0.6 ± 0.01 nM. This compound also showed an Emax on delta opioid receptor [9] (Table 8) of 98.7%. Besides, the EC50 at delta opioid receptor [9] (Table 8, read-out: delta EC50) turned out to be 11.1 nM. Moreover, the “agonist/antagonist character at the delta receptor” value on delta opioid receptor [9] was “partial or full or partial agonism”.

For `CN1CCC23c4c5ccc(O)c4OC2C(OC2O[C@H](C(=O)O)[C@@H](O)[C@H](O)[C@H]2O)C=CC3C1C5` (stereo partly drawn) [M6G, Morphine-6-glucuronide, reference compound], in the data set with heroin-dependent rats, the “effect on heroin self-administration” value is “effective at reducing heroin self-administration”. Besides, the “pH 2.0 t 1/2” value in data set [13] (pH 2.0) is on record as “stable”. Also, the “pH 7.4 t 1/2” value in data set [13] (pH 7.4) is “stable”. Also, the EC50 on kappa opioid receptor [2] (Table 8, read-out: kappa EC50) is more than 10000 nM; on delta opioid receptor [3] it was 190 ± 20 nM; on delta opioid receptor [9] (delta EC50, Table 2), 190 ± 22.9 nM; on delta opioid receptor [9] (delta EC50, Table 8) it was 190 ± 22.9 nM. Besides, in data set [14], the oral bioavailability is listed as 11%. The “δ Emax” value on delta opioid receptor [3] is 80.0 ± 1.0. Besides, the “HLS9 t 1/2” value in data set [4] was “stable”. Also, the Ki on delta opioid receptor [5] is 170 ± 1 nM; at delta opioid receptor [6] (Table 1, read-out: Ki δ) it was 161 ± 0.73 nM; at kappa opioid receptor [15], 4060 ± 230 nM; on kappa opioid receptor [8] (Table 1, read-out: Ki κ) it was 4060 ± 230 nM. In addition, the “MLM t 1/2” value in data set [7] is listed as “stable”. At delta opioid receptor [9] (Table 2), the Emax was 80%. In addition, the delta % stimulation at delta opioid receptor [9] (Table 8) came out at 80.0 ± 1.0%.

Turning to `O=C(C[C@@H]1O[C@H](COCc2ccccc2)[C@@H](OCc2ccccc2)[C@H](OCc2ccccc2)[C@H]1OCc1ccccc1)NC1CC[C@@]2(O)[C@H]3Cc4ccc(O)c5c4[C@@]2(CCN3CC2CC2)[C@H]1O5` (stereo partly drawn) [compound 5, 6-acetamido-2,3,4,6-tetra-O-benzyl-D-glucopyranosyl-14-Hydroxy-17-(cyclopropylmethyl)nordesmorphine], the Emax at kappa opioid receptor [2] (Table 8) was determined as 45.5%; at delta opioid receptor [9] (Table 8) it was 20.5%. Also, the EC50 on kappa opioid receptor [2] (Table 8, read-out: kappa EC50) stood at 10.8 nM; on delta opioid receptor [9] (Table 8, read-out: delta EC50), 107 nM. For the same compound, on delta opioid receptor [16], the “Ke(other) (delta)” value is recorded as 10.35 ± 2.01. Further, the Ki delta entry at delta opioid receptor [6] (Table 7, CHO membranes) was “low affinity”. Besides, the results for the Ki at delta opioid receptor [6] (setting [18]) and on kappa opioid receptor [8] (setting [19]) were 140 ± 13.9 nM and 39 ± 6.3 nM, respectively. For the same compound, the Ki kappa entry on kappa opioid receptor [8] (Table 7, CHO membranes) is “moderate affinity”.

With `C=CCN1CC[C@]23c4c5ccc(O)c4O[C@H]2C(=O)CC[C@@]3(O)[C@H]1C5` [naloxone], in the data set on adult male rats [17], the “minimum effective dose to precipitate somatic signs of withdrawal” value was 0.1 to 0.3 mg/kg.
